From patent US8211646B1, “Methods of treating ovarian cancer by modulating SnoN” (University of South Florida, priority 2008, dated 2012)

Columns and labels:
SnoN RNA = assay: qPCR of SnoN RNA levels in ovarian cell lines; assay type: cell-based; conditions: 5 μM As2O3, 18 hours
Description: RNA was isolated using the RNeasy Mini Kit (Qiagen, Valencia, Calif.) from normal, benign, stage I-IV ovarian patient samples and quantitative PCR was performed. A one-step RT-PCR Taqman master mix from Applied Biosystems (Foster City, Calif.) and primers for genes in the 3q26.2 amplicon were obtained using Genebank sequences as well as from Assays on Demand (Hs00180524_m1 (SnoN/SkiL)), with the following primers and probe sets.
Primers/probe sequences for SnoN (Hs00180524_m1), TGFβRII (Hs00234253_m1), and LC3 (Hs00261291_m1) were obtained from Applied Biosystems (Assays by Design).
mRNA levels were determined using the One-Step-Plus Applied Biosystems Detection System or ABI PRISM 7700 Sequence Detection System using β-actin as a reference. PCR conditions were as follows: stage I: 48° C. for 30 min; stage II: 95° C. for 10 min; stage III: [40 cycles] 95° C. for 15 s followed by 60° C. for 1 min Using the correlative method, RNA-fold change in expression was calculated as Ct of gene—Ct of β-actin to generate ΔCt from which ΔCt of the normal sample was subtracted. These values were then converted to log2 values.
The clinical inhibitors As2O3, geldanamycin (17-AAG) (dissolved in dimethylsulfoxide [DMSO]), and MG132 (dissolved in DMSO) were obtained from Sigma-Aldrich (St. Louis, Mo.), Fisher Scientific (Pittsburgh, Pa.), and Alexis Biochemicals (Farmingdale, N.Y.), respectively. N-acetyl-L-cysteine (NAC; dissolved in media) and Bortezomib (PS-341; dissolved in DMSO) were obtained from Fisher Scientific. 3-Methyladenine (3-MA; dissolved in media) was obtained from MP Biomedicals (Solon, Ohio). Tiron (4,5-Dihydroxy-1,3-benzenedisulfonic acid, dissolved in media) was obtained from Fisher Scientific. zVAD-fmk (dissolved in DMSO) and bafilomycin A (dissolved in DMSO) was obtained from Axxora LLC (San Diego, Calif.). […] After the appropriate incubation time (6 or 18 hours), cell lysates were collected, protein quantified, and SDS-PAGE/western analysis was performed. In addition, for selected studies, RNA was isolated, quantified, and used for qPCR analysis.

T80, HEY and SKOV3 cells = assay: Annexin V-propidium iodide apoptosis assay; assay type: cell-based; conditions: As2O3 treatment
Description: For assessment of apoptosis, the Annexin V-propidium iodide staining kit (Calbiochem, San Diego, Calif.) was used according to the manufacturer's protocol. Briefly, cells were treated with As2O3 for 24 hours at which time both the floating and adherent cells (removed by trypsinization) were collected. Cells were resuspended in PBS followed by the addition of annexin V-FITC and propidium iodide. The samples were then analyzed by flow cytometry at the MD Anderson Cancer Center FACS Core Facility. The FITC and the propidium iodide signals were detected at 518 nm with FL1 and at 620 nm with FL2, respectively.

Arsenic trioxide [As2O3]
effect on SnoN RNA (SnoN RNA): little effect
apoptotic percentage (T80, HEY and SKOV3 cells; SKOV3 and HEY): < 20%
apoptotic percentage (T80, HEY and SKOV3 cells; T80 (low expressing EVI1 cell line)): > 80%
